Assay results published in PMC11901578, “Polymethoxyflavones and Bone Metabolism” (Nutrients, 2025).
Like-named read-outs stand apart in the source and are kept apart here.

Key:
[1] = tested on: bone resorption in mouse calvarial or alveolar bone organ cultures; conditions: 30 μM, bone organ cultures; cited from earlier work
human OA chondrocytes = tested on: human OA chondrocytes; parameters: method as in PMID 30938722; conditions: IL-1-stimulated human OA chondrocytes; cited from earlier work
[2] = tested on: PGE2 production in osteoblasts; parameters: method as in PMID 21258168, PMID 22850615; conditions: with downregulation of COX-2; cited from earlier work
IKKβ = tested on: IKKβ; parameters: method as in PMID 21258168, PMID 22850615; conditions: in vitro kinase assay; cited from earlier work
[3] = tested on: NF-κB signaling in chondrocytes; parameters: method as in PMID 31214026; conditions: 10, 20, and 40 μM; cited from earlier work
[4] = tested on: human umbilical vein endothelial cells (HUVECs); parameters: method as in PMID 22707269; conditions: read-out: IC50, anti-proliferative effect on HUVECs; cited from earlier work
[5] = tested on: human periodontal ligament cells (HPDLCs); conditions: 12.5, 25, 50, and 100 μM, TNF- or IL-1-stimulated HPDLCs; cited from earlier work
[6] = tested on: ovariectomized (OVX) mice; conditions: cited from earlier work
[7] = tested on: osteoclast differentiation in co-cultures of osteoblasts and bone marrow cells; conditions: cited from earlier work
[8] = tested on: alveolar bone loss in mice; conditions: cited from earlier work; for alveolar bone loss in mice, restored: LPS +; for decrease of alveolar bone mineral density (ABMD): co-injection with LPS (25 μg/mouse/day), three times every other day, LPS alone 9%
[9] = tested on: bone marrow macrophages (BMMs); conditions: 50 μM; cited from earlier work
DMM-OA mice = conditions: cited from earlier work
[10] = tested on: bone resorption in mouse bone organ cultures; parameters: method as in PMID 21258168, PMID 22850615; conditions: 60 μM; cited from earlier work
[11] = tested on: osteoclast differentiation in co-culture system; conditions: 30 μM, cited from earlier work
[12] = tested on: collagen-induced arthritic mice; conditions: cited from earlier work
HL-60 cells = tested on: HL-60 cells; parameters: method as in PMID 23225422; conditions: read-out: IC50, anti-proliferative effect on HL-60 cells; cited from earlier work
[13] = tested on: human osteoblastic cell line MG-63; parameters: method as in PMID 34466066; conditions: 10 and 20 μg/mL (approximately 25 and 50 μM); cited from earlier work
Raw264.7 = conditions: cited from earlier work
[14] = tested on: MH7A human fibroblast-like synoviocytes (FLS); parameters: method as in PMID 31978425; conditions: 50 μM; cited from earlier work
[15] = tested on: ectopic bone formation in mice; parameters: method as in PMID 36816515; conditions: collagen sponge disk with BMP-2 (1 μg) and nobiletin (2.5 or 5 μg), fascia of back muscle; cited from earlier work
estrogen receptor-β = estrogen receptor-β (Homo sapiens, UniProt Q92731); assay: Estrogen receptor-binding assay; conditions: unpublished data
Source text: (§1) An anticipated adverse effect of long-term flavonoid supplementation is an estrogen-like effect. Although isoflavones, such as genistein and daidzein, have estrogenic effects via binding to estrogen receptors, there are no reports on polymethoxyflavones. […] On the other hand, excessive long-term intake of PMFs may indicate some toxicity, since a high concentration of PMFs may lead to inhibited cell growth or cell death in various cell types, including osteoblasts, endothelial cells, and cancer cell lines.

estrogen receptor-α = estrogen receptor-α (Homo sapiens, UniProt P03372); assay: Estrogen receptor-binding assay; conditions: unpublished data
Source text: as §1

zebrafish embryos = tested on: zebrafish embryos; parameters: method as in PMID 22707269; conditions: 30 μM, cited from earlier work
[16] = intraperitoneal 50 μM for 9 weeks
[17] = intraperitoneal 2 mg/mouse/day (approximately 67 mg/kg) for 4 weeks, Sham mice as 100%
[18] = subcutaneous 0.25 mg/day by mini-osmotic pump for 4 weeks

Sequence of estrogen receptor-α (P03372 whole entry): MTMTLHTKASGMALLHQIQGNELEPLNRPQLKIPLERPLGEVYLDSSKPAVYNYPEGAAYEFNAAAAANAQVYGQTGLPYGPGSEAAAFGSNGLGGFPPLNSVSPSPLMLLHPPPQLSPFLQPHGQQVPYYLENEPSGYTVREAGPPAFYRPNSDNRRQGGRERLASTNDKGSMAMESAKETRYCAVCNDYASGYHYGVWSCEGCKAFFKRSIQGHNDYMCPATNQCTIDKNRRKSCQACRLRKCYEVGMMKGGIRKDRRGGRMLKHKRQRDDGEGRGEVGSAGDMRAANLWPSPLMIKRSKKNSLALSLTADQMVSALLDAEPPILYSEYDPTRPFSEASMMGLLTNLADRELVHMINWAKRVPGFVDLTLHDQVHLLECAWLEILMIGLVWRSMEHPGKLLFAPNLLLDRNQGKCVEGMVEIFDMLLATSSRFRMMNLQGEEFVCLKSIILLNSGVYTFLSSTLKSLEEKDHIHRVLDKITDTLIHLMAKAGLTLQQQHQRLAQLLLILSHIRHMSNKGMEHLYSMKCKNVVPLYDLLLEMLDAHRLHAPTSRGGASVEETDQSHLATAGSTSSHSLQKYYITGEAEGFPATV
Sequence of estrogen receptor-β (Q92731 whole entry): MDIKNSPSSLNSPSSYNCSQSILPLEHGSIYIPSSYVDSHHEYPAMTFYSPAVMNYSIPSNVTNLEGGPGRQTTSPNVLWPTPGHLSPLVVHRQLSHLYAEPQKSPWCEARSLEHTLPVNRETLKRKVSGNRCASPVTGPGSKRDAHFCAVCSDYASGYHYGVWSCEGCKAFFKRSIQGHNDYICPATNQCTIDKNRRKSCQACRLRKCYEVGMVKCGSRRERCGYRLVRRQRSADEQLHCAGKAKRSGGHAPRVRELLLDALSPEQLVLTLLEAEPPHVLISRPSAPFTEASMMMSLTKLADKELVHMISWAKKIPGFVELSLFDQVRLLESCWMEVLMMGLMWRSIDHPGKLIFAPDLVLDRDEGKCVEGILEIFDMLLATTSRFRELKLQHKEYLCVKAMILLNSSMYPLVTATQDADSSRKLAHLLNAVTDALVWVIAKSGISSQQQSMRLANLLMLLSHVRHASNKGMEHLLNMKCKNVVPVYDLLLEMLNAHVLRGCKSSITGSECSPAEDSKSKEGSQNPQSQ

SMILES: COc1ccc(-c2cc(=O)c3c(OC)c(OC)c(OC)c(OC)c3o2)cc1OC [Nobiletin, 3′,4′,5,6,7,8-Hexamethoxyflavone]
- LPS-induced bone-resorbing activity [1]: significantly suppressed
- overproduction of inflammatory mediators (PGE2, NO, COX-2, iNOS, TNF-α, IL-6, MMPs) (human OA chondrocytes): significantly suppressed
- PGE2 production [2]: suppressed
- IKKβ kinase activity (IKKβ): directly inhibited
- IL-1-induced NF-κB signaling [3]: inhibited IL-1-induced NF-κB signaling in a dose-dependent manner
- IC50 [4]: 62 µM
- expression of inflammatory cytokines (CXCL10, CCL2, IL-8), MMP-1, MMP-3, and COX-2 [5]: dose-dependently reduced
- effect on body weight and the uterus [6]: without affecting body weight and the uterus
- BMD restored [6, 16]: 4.5%
- BV/TV restored [6, 16]: 16%
- trabecular separation (Tb.Sp) restored [6, 16]: 30%
- bone mineral density (BMD) of the femur restored [6, 17]: 6%
- bone volume/tissue volume (BV/TV) of the femur restored [6, 17]: 34%
- trabecular BMD in the distal femur restored ([6]; oral 50 and 100 mg/kg for 12 weeks, similar effects at both dosages): 8%
- distal BMD in the femur restored [6, 18]: 5%
- whole BMD in the femur restored [6, 18]: 4%
- inhibition of IL-1-induced osteoclast differentiation ([7]; 10 μM): 20%
- inhibition of IL-1-induced osteoclast differentiation ([7]; 30 μM): 85%
- inhibition of IL-1-induced osteoclast differentiation ([7]; 60 μM): 100%
- IC50 ([7]; IL-1 +, read-out: IC50, osteoclast differentiation in co-culture system): 33 µM
- alveolar bone loss in mice, restored ([8]; 30 μg/mouse): 5% restored [8]
- alveolar bone loss in mice, restored ([8]; 100 μg/mouse): 6% restored [8]
- alveolar bone loss in mice, restored ([8]; 300 μg/mouse): 9% restored [8]
- decrease of alveolar bone mineral density (ABMD) ([8]; 3 μg/mouse/day): 3%
- decrease of alveolar bone mineral density (ABMD) ([8]; 100 μg/mouse/day): 4%
- decrease of alveolar bone mineral density (ABMD) ([8]; 300 μg/mouse/day): 1%
- cytotoxicity to bone marrow macrophages (BMMs) [9]: cytotoxic
- cartilage destruction and synovitis (DMM-OA mice; DMM-OA mice, intraperitoneal 20 mg/kg every 2 days for 8 weeks): inhibited cartilage destruction and synovitis
- cartilage destruction and subchondral bone thickening (DMM-OA mice; DMM-OA model mice): prevented cartilage destruction and thickening of the subchondral bone
- IL-1-induced bone resorption [10]: completely suppressed
- LPS-induced osteoclast differentiation ([11]; co-cultures): significantly suppressed
- osteoclast differentiation in co-culture system, inhibited ([11]; LPS +): 70% inhibited [8]
- gene expression and production of aggrecanase-1 and -2 ([12]; collagen-induced arthritic mice): downregulate
- decrease of severity of arthritis ([12]; intraperitoneal 15, 30, and 60 mg/kg): 45%
- IC50 (HL-60 cells): 52 µM
- osteoblast differentiation and mineralization [13]: promoted osteoblast differentiation and mineralization in a dose-dependent manner
- RANKL-induced osteoclast differentiation (Raw264.7; 4, 20, and 50 μM, Raw264.7): suppressed RANKL-induced osteoclast differentiation in a dose-dependent manner
- osteoclast differentiation in Raw264.7 cultures, inhibited (Raw264.7; RANKL +, 30 μM): 86% inhibited [8]
- IC50 (Raw264.7; RANKL +, read-out: IC50, osteoclast differentiation in Raw264.7 cultures): 8 µM
- IL-21-mediated inflammatory response [14]: suppressed
- increase of bone formation (BV/TV) relative to BMP-2 alone [15]: 33%
- binding to estrogen receptor-β (estrogen receptor-β): unable to bind
- binding to estrogen receptor-α (estrogen receptor-α): unable to bind
- anti-angiogenic effect on zebrafish embryos, inhibited (zebrafish embryos; listed as nobiletin): ~63%
- anti-angiogenic effect on zebrafish embryos, inhibited (zebrafish embryos): 63% inhibited [47]
